One test has as its system bone forming activities. Particulars: prior studies (U.S. application Ser. No. 17/713,384; Chinese Application No. 202210551690.4); cited from earlier work.
Test [1] relates to MC3T3-E1 osteoblasts. The test can be described thus: Stimulation of alkaline phosphatase (ALP) activity as a marker of bone forming activity. In kind it is cell-based. Particulars: 0.5 μM and 1.5 μM, 4 days; ASC+b-GP as positive control. On the procedure:
Cells were treated with 0.5 μM and 1.5 μM concentrations of 1-Methyleffusol for 4 days and the alkaline phosphatase (ALP) activity, as a marker of bone forming activity, was measured. Ascorbate and beta-glycerophosphate treatment (ASC+b-GP) was performed as positive control for ALP induction.

Test [2] has as its system MC3T3-E1 osteoblasts. The test can be described thus: Promotion of osteoblast mineralization: calcium deposition by Alizarin Red staining. In kind it is cell-based. The settings on record: 1.5 or 5 mM in osteoblast mineralization medium (OM), 14 days. As to the method:
Cells were treated with 1-Methyleffusol (1.5 or 5 mM) in osteoblast mineralization medium (OM) for 14 days, and the calcium deposition in the cell layer was measured by Alizarin Red staining (images not shown).

Regarding `C=Cc1cc(O)c(C)c2c1-c1ccc(O)c(C)c1CC2` [1-Methyleffusol, 1,8-dimethyl-4-vinyl-9,10-dihydrophenanthrene-2,7-diol], the “stimulation of bone forming activities” value in the test on bone forming activities is on record as “exhibited the ability for stimulation of bone forming activities”. Also, the “alkaline phosphatase (ALP) activity” value in the test with MC3T3-E1 osteoblasts [1] is “stimulate ALP activity”. Besides, in the test with MC3T3-E1 osteoblasts [2], the “mineralization (calcium deposition in the cell layer, Alizarin Red staining)” value is “promoted mineralization”.

Source of the values: patent US20260159465A1, “METHODS OF MAKING AND USING 1-METHYLEFFUSOL” (Laboratory for Synthetic Chemistry and Chemical Biology …, priority 2024, published 2026).
